Patent publication US8969542B2, “HPV polyepitope constructs and uses thereof” (priority 2007, dated 2015)
Where two headings read alike, the source gives them in different places. Where no end group is shown, it is not given here.

Legend:
DRB1*0101 (DR1) = DRB1*0101 (DR1) (Homo sapiens, UniProt P01903+P01911, A100R/D57E/F55L/F60I/F76Y/I96L/L162R/M171V/P40L/Q125E/R42F/V115G/Y59C); assay: biochemical
DRB1*0301 (DR3) = DRB1*0301 (DR3) (Homo sapiens, UniProt P01903+P01911, A100K/A102G/A103R/A169T/F55Y/I96L/K41T/L162R/M171V/P40S/Q125H/Q178H/Q39Y/R42S/S66N/T106N/T262R/W38E/Y61H); assay: biochemical
DRB1*0301 (DR3), sequence (P01903 26-254, other chains not shown): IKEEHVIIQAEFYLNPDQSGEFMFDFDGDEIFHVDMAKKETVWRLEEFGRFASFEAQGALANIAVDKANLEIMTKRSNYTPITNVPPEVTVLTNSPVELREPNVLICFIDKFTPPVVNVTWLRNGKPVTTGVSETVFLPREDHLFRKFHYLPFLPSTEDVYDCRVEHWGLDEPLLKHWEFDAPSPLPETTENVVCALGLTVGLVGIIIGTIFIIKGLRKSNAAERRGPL

DRB1*0405 (DR4w15) = DRB1*0405 (DR4w15) (Homo sapiens, UniProt P01903+P01911, A100R/A169T/D86S/F76Y/I96L/K127E/L162R/M171V/N62H/P40V/Q125Y/R42H/S133A/S149N/S66Y/V115G/V209L/W38E); assay: biochemical
DRB1*0405 (DR4w15), sequence (P01903 26-254 partner, other chains not shown): as the sequence (P01903 26-254, other chains not shown) above

DRB1*0701 (DR7) = DRB1*0701 (DR7) (Homo sapiens, UniProt P01903+P01911, A100R/A102G/A103Q/D57E/D86V/E43K/F76Y/K127E/L162R/M171V/P40G/Q125H/Q99D/R33Q/R42Y/R54Q/S133A/S66F/T210M/V115G/Y107V/Y59L/Y89S); assay: biochemical
DRB1*0901 = DRB1*0901 (Homo sapiens, UniProt P01903+P01911, A100R/A103E/D57H/D86V/F55Y/F60I/F76Y/I96F/K127E/L162R/M171V/P40D/Q125H/Q99R/R33Q/R42F/S133A/S66N/T210M/V115G/W38K/Y107V/Y59G/Y89S); assay: biochemical
DRB1*0401 (DR4w4) [1] = target: T1, DRB1*0401 (DR4w4) (Homo sapiens, UniProt P01903+P01911, A100K/A169T/F76Y/I96L/K127E/L162R/M171V/N62H/P40V/Q125Y/R42H/S133A/S149N/S66Y/V115G/V209L/W38E); assay: biochemical
T1 sequence (P01903 26-254 partner, other chains not shown): as the sequence (P01903 26-254, other chains not shown) above

DRB5*0101 (DR2w2beta-2) = DRB5*0101 (DR2w2beta-2) (Homo sapiens, UniProt P01903+Q30154); assay: biochemical
DRB1*0802 (DR8w2) = DRB1*0802 (DR8w2) (Homo sapiens, UniProt P01903+P01911, A100R/A103L/A169T/F76Y/H45Y/I96F/K41T/L162R/M171V/P40S/Q125H/Q178H/Q39Y/Q99D/R218S/R42G/S66Y/V115G/W38E); assay: biochemical
DRB1*1101 (DR5) = DRB1*1101 (DR5) (Homo sapiens, UniProt P01903+P01911, A100R/A169T/A87E/I96F/K41T/L162R/M171V/P40S/Q125H/Q178H/Q39Y/Q99D/R42S/S66Y/T262R/V115G/W38E); assay: biochemical
DRB1*1101 (DR5), sequence (P01903 26-254 partner, other chains not shown): as the sequence (P01903 26-254, other chains not shown) above

DRB1*1501 (DR2w2beta-1) = DRB1*1501 (DR2w2beta-1) (Homo sapiens, UniProt P01903+P01911); assay: biochemical
DRB4*0101 (DRw53) [2] = target: T2, DRB4*0101 (DRw53) (Homo sapiens, UniProt P01903+P13762, G164S); assay: biochemical
DRB1*0404 (DR4w14) = DRB1*0404 (DR4w14) (Homo sapiens, UniProt P01903+P01911, A100R/A169T/F76Y/I96L/K127E/L162R/M171V/N62H/P40V/Q125Y/R42H/S133A/S149N/S66Y/V209L/W38E); assay: biochemical
DRB1*1302 (DR6w19) = DRB1*1302 (DR6w19) (Homo sapiens, UniProt P01903+P01911, A100E/A169T/K41T/L162R/M171V/P40S/Q125H/Q178H/Q39Y/Q99D/R42S/S66N/T262R/V115G/W38E/Y61H); assay: biochemical
DRB1*1302 (DR6w19), sequence (P01903 26-254, other chains not shown): as above

DRB1*0401 (DR4w4) [3] = target: T1, DRB1*0401 (DR4w4); details: read-out: IC50 nM to purified HLA DRB1 *0401; HTL epitopes
DRB4*0101 (DRw53) [4] = target: T2, DRB4*0101 (DRw53); details: read-out: IC50 nM to purified HLA DRB4 *0101; HTL epitopes

Compound	IC50 (DRB1*0101 (DR1))	IC50 (DRB1*0301 (DR3))	IC50 (DRB1*0405 (DR4w15))	IC50 (DRB1*0701 (DR7))	IC50 (DRB1*0901)	IC50 (DRB1*0401 (DR4w4) [1])	IC50 (DRB5*0101 (DR2w2beta-2))	IC50 (DRB1*0802 (DR8w2))	IC50 (DRB1*1101 (DR5))	IC50 (DRB1*1501 (DR2w2beta-1))	IC50 (DRB4*0101 (DRw53) [2])	IC50 (DRB1*0404 (DR4w14))	IC50 (DRB1*1302 (DR6w19))	IC50 (DRB1*0401 (DR4w4) [3])	IC50 (DRB4*0101 (DRw53) [4])
CC[C@H](C)[C@H](N)C(=O)N[C@@H](CCC(=O)O)C(=O)N[C@@H](Cc1ccccc1)C(=O)N[C@H](C(=O)N[C@H](C(=O)N[C@@H](Cc1ccccc1)C(=O)N[C@@H](CC(C)C)C(=O)NCC(=O)N[C@@H](C)C(=O)N[C@@H](CC(C)C)C(=O)N[C@@H](CCCCN)C(=O)N[C@@H](CO)C(=O)N[C@@H](Cc1ccccc1)C(=O)N[C@@H](CC(C)C)C(=O)N[C@@H](CCCCN)C(=O)O)[C@@H](C)O)[C@@H](C)CC [compound 99]	0.03 µM	> 20 µM	3.65 µM	> 20 µM	> 20 µM										
NGWFYVEAVIDRQTG [compound 106]	1.86 µM	2.8 µM	0.178 µM	1.46 µM	3.67 µM	0.845 µM	1.2 µM								
WKHIRLECVLMYKAR [compound 108]		0.146 µM	0.071 µM	16.4 µM	11.8 µM	0.263 µM	0.412 µM	0.476 µM	0.081 µM	0.134 µM	0.102 µM				
WKHMRLECAIYYKAR [compound 91]	0.701 µM	0.437 µM	0.557 µM	0.504 µM	6.34 µM	0.245 µM	0.28 µM	0.09 µM	2.4 µM	1.39 µM	0.766 µM	6.86 µM	0.248 µM		
DWVMAIFGVNPTVAEGF [compound 114]		3.75 µM	0.092 µM		17.9 µM		0.387 µM	4.27 µM	4.96 µM		0.571 µM	0.02 µM			
LQAIELQLTLETIYN (Human papillomavirus type 16) [SEQ ID 92]														37 nM	2 nM
CC[C@H](C)[C@H](N)C(=O)N[C@@H](CCCNC(=N)N)C(=O)N[C@H](C(=O)N[C@@H](CC(C)C)C(=O)N[C@@H](CCC(N)=O)C(=O)N[C@@H](CCC(=O)O)C(=O)N[C@@H](CC(C)C)C(=O)N[C@@H](CC(C)C)C(=O)N[C@@H](CCSC)C(=O)NCC(=O)N[C@@H](CO)C(=O)N[C@@H](Cc1ccccc1)C(=O)NCC(=O)N[C@H](C(=O)N[C@H](C(=O)O)C(C)C)[C@@H](C)CC)[C@@H](C)CC [compound 112]	0.05 µM														
CC[C@H](C)[C@H](NC(=O)CNC(=O)[C@H](CCC(=O)O)NC(=O)[C@H](Cc1c[nH]cn1)NC(=O)[C@@H](NC(=O)[C@H](Cc1ccc(O)cc1)NC(=O)[C@H](Cc1ccc(O)cc1)NC(=O)[C@H](CC(C)C)NC(=O)CN)C(C)C)C(=O)N[C@@H](CCCNC(=N)N)C(=O)N[C@H](C(=O)N[C@@H](Cc1ccc(O)cc1)C(=O)N[C@@H](Cc1ccccc1)C(=O)N[C@H](C(=O)N[C@@H](CCC(N)=O)C(=O)O)C(C)C)[C@@H](C)O [compound 93]							1 µM				> 20 µM	> 20 µM	> 20 µM		
CC[C@H](C)[C@H](NC(=O)[C@H](C)NC(=O)[C@H](CCCCN)NC(=O)[C@@H](N)Cc1c[nH]cn1)C(=O)N[C@@H](CCC(=O)O)C(=O)N[C@@H](CC(C)C)C(=O)N[C@@H](CCC(N)=O)C(=O)N[C@@H](CCSC)C(=O)N[C@@H](C)C(=O)N[C@@H](CC(C)C)C(=O)N[C@@H](CCC(N)=O)C(=O)NCC(=O)N[C@@H](CC(C)C)C(=O)N[C@@H](C)C(=O)N[C@@H](CCC(N)=O)C(=O)O [compound 101]						0.05 µM					0.003 µM				
